Data set [1] addresses HIV-1 RT enzyme (wild-type) (Human immunodeficiency virus type 1 group M subtype B, UniProt P04585). As to the kind of experiment: ECL assay for inhibition of HIV reverse transcriptase (WT). It counts as biochemical. As for the experimental part:
(§1) 100 μL reaction mixtures were initiated with a combination of primer-template substrate (10 nM final concentration) and dNTPs (0.6 μM dNTPs, 1.25 μM BrdUTP). The heterodimeric nucleic acid substrate was generated by annealing the DNA primer pD500 (described in Shaw-Reid et al., J. Biol. Chem., 278: 2777-2780; obtained from Integrated DNA Technologies) to t500, a 500 nucleotide RNA template created by in vitro transcription (see Shaw-Reid et al., J. Biol. Chem., 278: 2777-2780). After 1 hour incubation at 37° C., reactions were quenched by 10 μL of 1 N NaOH. Microtiter plates were incubated for an additional 30 minutes at room temperature and then neutralized with 10 μL of 1 N HCl. A mixture of detection buffer containing ruthenylated anti-BrdU antibody and streptavidin coated magnetic beads were added to the plate and incubated at room temperature for 1.5 hours prior to quantification via electrochemiluminescence instrument.

The target in data set [2] is T1, HIV reverse transcriptase with the K103N mutation (Human immunodeficiency virus type 1 group M subtype B, UniProt P04585, K690N).
T1 construct: made in house
The data set is described as follows: ECL assay for inhibition of mutant HIV reverse transcriptase (K103N). It is filed as biochemical, HIV-1. As for the experimental part:
as §1
(§2) Analogous assays were conducted substituting mutant HIV strains to determine the […] inhibition of compounds of the present invention against mutant HIV reverse transcriptase. In one strain the reverse transcriptase has the Y181C mutation and in the other strain the reverse transcriptase has the K103N mutation. The mutations were generated with the […] site-directed mutagenesis kit (Stratagene).

Data set [3] concerns the target T2, HIV reverse transcriptase with the Y181C mutation (Human immunodeficiency virus type 1 group M subtype B, UniProt P04585, Y768C).
T2 construct: made in house
As to the kind of experiment: ECL assay for inhibition of mutant HIV reverse transcriptase (Y181C). It counts as biochemical, HIV-1. As for the experimental part: as §1, §2

The subject of data set [4] is wild type HIV-1. As to the kind of experiment: Spread assay: inhibition of acute HIV-1 infection of T-lymphoid cells (WT). It is filed as cell-based. Conditions: Human immunodeficiency virus 1, T-lymphoid; wild type HIV-1, 10% FBS; read-out: Spread (WT) CIC95 (10% FBS). As for the experimental part: (§3) Assays for the inhibition of acute HIV-1 infection of T-lymphoid cells (alternatively referred to herein as the “spread assay”) were conducted in accordance with Vacca, J. P. et al., Proc. Natl. Acad. Sci. USA 1994, 91: 4096. The assays tested for inhibition of wild type HIV-1 and of HIV strains containing the Y181C or K103N mutation. […] Table C also reports the CIC95 values of certain of the title compounds of Examples 1-25 obtained in the assays employing the Y181C mutant strain and the K103N mutant strain.

Data set [5] has as its system T-lymphoid cells. It counts as cell-based. As for the experimental part: Cytotoxicity was determined by microscopic examination of the cells in each well in the spread assay, wherein a trained analyst observed each culture for any of the following morphological changes as compared to the control cultures: pH imbalance, cell abnormality, cytostatic, cytopathic, or crystallization (i.e., the compound is not soluble or forms crystals in the well). The toxicity value assigned to a given compound is the lowest concentration of the compound at which one of the above changes is observed.

The subject of data set [6] is HIV strain containing the K103N mutation. The data set is described as follows: Spread assay: inhibition of acute HIV-1 infection of T-lymphoid cells (K103N). It is filed as cell-based. The note with it: Human immunodeficiency virus 1, T-lymphoid, read-out: Spread (K103N) CIC95 (10% FBS). As for the experimental part: as §3
The test system of data set [7] is HIV strain containing the Y181C mutation. The data set is described as follows: Spread assay: inhibition of acute HIV-1 infection of T-lymphoid cells (Y181C). It is filed as cell-based. Conditions: Human immunodeficiency virus 1, T-lymphoid, read-out: Spread (Y181C) CIC95 (10% FBS). As for the experimental part: as §3
Where [8] appears, read: wild-type HIV-1 RT, read-out: ECL Assay (WT) IC50.
Where [9] appears, read: K103N mutant RT, read-out: ECL Assay (K103N) IC50.
Setting [10] is: Y181C mutant RT, read-out: ECL Assay (Y181C) IC50.

Read-outs that look alike come from different tables or passages of the source.

By IC50 is commonly meant the midpoint of a concentration-inhibition curve. Turning to `CCOC(=O)c1cc(Cl)cc(Oc2c(Cl)c(CCc3n[nH]c4ncccc34)[nH]c(=O)c2Cl)c1` [Compound 5-7, ethyl 3-chloro-5-({3,5-dichloro-2-oxo-6-[2-(1H-pyrazolo[3,4-b]pyridin-3-yl)ethyl]-1,2-dihydropyridin-4-yl}oxy)benzoate], the IC50 in data set [1] (setting [8]) amounted to 3.5 nM; in data set [2] (setting [9]), 52 nM; in data set [3] (setting [10]), 49 nM. Besides, the IC95 in data set [4] came to 1220 nM. For the same compound, the “Cytotoxicity: no cytotoxicity at concentrations of up to” value in data set [5] was above 8.5 µM.
For the compound `Cc1ccn(Cc2n[nH]c3ncccc23)c(=O)c1Oc1cc(Cl)cc(C#N)c1` [Compound 11-7, 3-chloro-5-{[4-methyl-2-oxo-1-(1H-pyrazolo[3,4-b]pyridin-3-ylmethyl)-1,2-dihydropyridin-3-yl]oxy}benzonitrile], the IC50 in data set [1] (setting [8]) was 2.5 nM; in data set [2] (setting [9]), 3.7 nM; in data set [3] (setting [10]) it was 3.2 nM. Besides, the results for the IC95 in data set [4] and in data set [6] were 7 nM and 14 nM, respectively. Besides, the “Cytotoxicity: no cytotoxicity at concentrations up to” value in data set [5] is reported as above 833 nM.
Regarding `N#Cc1cc(Cl)cc(Oc2c(Cl)ccn(Cc3n[nH]c4ncccc34)c2=O)c1` [Compound 21-8, 3-chloro-5-{[4-chloro-2-oxo-1-(1H-pyrazolo[3,4-b]pyridin-3-ylmethyl)-1,2-dihydropyridin-3-yl]oxy}benzonitrile], the half-inhibitory concentration (IC50) stood at 0.8 nM in data set [1] (setting [8]), 1.4 nM in data set [2] (setting [9]) and 1 nM in data set [3] (setting [10]). The IC95 was determined as 3 nM in data set [4] and 8 nM in data set [7]. Moreover, the “Cytotoxicity: no cytotoxicity at concentrations up to” value in data set [5] was above 833 nM.
In the case of `N#Cc1cc(Cl)cc(Oc2cc(Cc3n[nH]c4ncccc34)[nH]c(=O)c2Cl)c1` [Compound 24-7, 3-Chloro-5-{[3-chloro-2-oxo-6-(1H-pyrazolo[3,4-b]pyridin-3-ylmethyl)-1,2-dihydropyridin-4-yl]oxy}benzonitrile], the values for the 50% inhibitory concentration (IC50) in data set [1] (setting [8]), in data set [2] (setting [9]) and in data set [3] (setting [10]) were 0.9 nM, 1.7 nM and 1 nM, respectively. The IC95 in data set [4] is 2.4 nM; in data set [6], 13 nM; in data set [7], 6.6 nM. For the same compound, in data set [5], the “Cytotoxicity: no cytotoxicity at concentrations up to” value is above 833 nM.
For the compound `N#Cc1cc(Cl)cc(Oc2cc(CCc3n[nH]c4ncccc34)[nH]c(=O)c2Cl)c1` [Compound 3-8, 3-chloro-5-({3-chloro-2-oxo-6-[2-(1H-pyrazolo[3,4-b]pyridin-3-yl)ethyl]-1,2-dihydropyridin-4-yl}oxy)benzonitrile], the IC50 in data set [1] (setting [8]) stood at 1.9 nM; in data set [2] (setting [9]), 4.7 nM; in data set [3] (setting [10]), 3 nM. Further, the IC95 in data set [4] amounted to 7 nM; in data set [6], 31 nM; in data set [7] it was 19 nM. Also, the “Cytotoxicity: no cytotoxicity at concentrations up to” value in data set [5] is on record as above 833 nM.
As for `N#Cc1cc(Cl)cc(Oc2c(Cl)c(CCc3n[nH]c4ncccc34)[nH]c(=O)c2Cl)c1` [Compound 5-6, 3-chloro-5-({3,5-dichloro-2-oxo-6-[2-(1H-pyrazolo[3,4-b]pyridin-3-yl)ethyl]-1,2-dihydropyridin-4-yl}oxy)benzonitrile], the IC50 in data set [1] (setting [8]) turned out to be 1.2 nM; in data set [2] (setting [9]), 1.8 nM; in data set [3] (setting [10]) it was 1.6 nM. Moreover, the values for the IC95 in data set [4] and in data set [6] were 42 nM and 367 nM, respectively. The “Cytotoxicity: no cytotoxicity at concentrations of up to” value in data set [5] is above 8.5 µM.
As to `N#Cc1cc(Cl)cc(Oc2c(C(F)(F)F)ccn(CC(=O)Nc3ccc(S(N)(=O)=O)cc3Cl)c2=O)c1` [Compound 15, N-[4-(aminosulfonyl)-2-chlorophenyl]-2-[3-(3-chloro-5-cyanophenoxy)-2-oxo-4-(trifluoromethyl)pyridin-1 (2H)-yl]acetamide], the 50% inhibitory concentration (IC50) in data set [1] (setting [8]) was 3.3 nM; in data set [2] (setting [9]), 4.8 nM; in data set [3] (setting [10]) it was 3.9 nM. The values for the IC95 in data set [4] and in data set [6] were 10 nM and 6 nM, respectively. In addition, in data set [5], the “Cytotoxicity: no cytotoxicity at concentrations up to” value is given as above 833 nM.
Consider `N#Cc1cc(Cl)cc(Oc2cc(NCc3n[nH]c4ncccc34)[nH]c(=O)c2Cl)c1` [Compound 8-5, 3-chloro-5-({3-chloro-2-oxo-6-[(1H-pyrazolo[3,4-b]pyridin-3-ylmethyl)amino]-1,2-dihydropyridin-4-yl}oxy)benzonitrile], for which the IC50 in data set [1] (setting [8]) is 0.9 nM; in data set [2] (setting [9]), 11 nM; in data set [3] (setting [10]), 5.7 nM. The IC95 was found to be 34 nM in data set [4] and 833 nM in data set [6]. In addition, in data set [5], the “Cytotoxicity: no cytotoxicity at concentrations of up to” value is above 8.5 µM.
For `N#Cc1cc(Cl)cc(Oc2cc(Cn3c(=O)[nH]c4ccccc43)[nH]c(=O)c2Cl)c1` [Compound 9-8, 3-chloro-5-({3-chloro-2-oxo-6-[(2-oxo-2,3-dihydro-1H-benzimidazol-1-yl)methyl]-1,2-dihydropyridin-4-yl}oxy)benzonitrile], the values for the concentration for half-maximal inhibition (IC50) in data set [1] (setting [8]), in data set [2] (setting [9]) and in data set [3] (setting [10]) were 4.8 nM, 13 nM and 6.3 nM, respectively. The IC95 in data set [4] amounted to 638 nM. In addition, the “Cytotoxicity: no cytotoxicity at concentrations of up to” value in data set [5] is above 8.5 µM.
On to `Cc1nc(OCc2n[nH]c3ncccc23)c(Cl)c(Oc2cc(Cl)cc(C#N)c2)c1Cl` [Compound 7-1, 3-chloro-5-{[3,5-dichloro-2-methyl-6-(1H-pyrazolo[3,4-b]pyridin-3-ylmethoxy)pyridin-4-yl]oxy}benzonitrile], for which the IC50 came out at 1.3 nM in data set [1] (setting [8]), 27 nM in data set [2] (setting [9]) and 3.5 nM in data set [3] (setting [10]). Moreover, the IC95 in data set [4] stood at 100 nM; in data set [6] it was 1700 nM. For the same compound, the “Cytotoxicity: no cytotoxicity at concentrations of up to” value in data set [5] is above 8.5 µM.
For the compound `Cc1ccn(CCc2n[nH]c3ncccc23)c(=O)c1Oc1cc(Cl)cc(C#N)c1` [Compound 12-7, 3-chloro-5-({4-methyl-2-oxo-1-[2-(1H-pyrazolo[3,4-b]pyridin-3-yl)ethyl]-1,2-dihydropyridin-3-yl}oxy)benzonitrile], the IC50 turned out to be 25 nM in data set [1] (setting [8]), 58 nM in data set [2] (setting [9]) and 51 nM in data set [3] (setting [10]). The IC95 is 248 nM in data set [4] and 447 nM in data set [6]. For the same compound, the “Cytotoxicity: no cytotoxicity at concentrations up to” value in data set [5] is given as above 833 nM.
In the case of `CN(Cc1ccccc1Cl)C(=O)Cn1ccc(C(F)(F)F)c(Oc2cc(Cl)cc(C#N)c2)c1=O` [Compound 14, N-(2-chlorobenzyl)-2-[3-(3-chloro-5-cyanophenoxy)-2-oxo-4-(trifluoromethyl)pyridin-1(2H)-yl]-N-methylacetamide], the half-inhibitory concentration (IC50) in data set [1] (setting [8]) is 300 nM; in data set [2] (setting [9]), 440 nM; in data set [3] (setting [10]), 290 nM. In addition, the IC95 in data set [4] came out at 330 nM; in data set [6], 284 nM. Besides, the “Cytotoxicity: no cytotoxicity at concentrations up to” value in data set [5] is above 833 nM.
Turning to `N#Cc1cc(Cl)cc(Oc2cc(C(O)c3n[nH]c4ncccc34)[nH]c(=O)c2Cl)c1` (centres unmarked) [Compound 25-2], the IC50 in data set [1] worked out at 3.2 nM; in data set [2], 13 nM; in data set [3] it was 4.7 nM. For the same compound, the figures for the IC95 in data set [4] and in data set [6] were 28 nM and 180 nM, respectively.
`N#Cc1cc(Cl)cc(Oc2cc(CCc3n[nH]c4ncccc34)ncc2Cl)c1` [Compound 6-5, 3-chloro-5-({5-chloro-2-[2-(1H-pyrazolo[3,4-b]pyridin-3-yl)ethyl]pyridin-4-yl}oxy)benzonitrile]: the 50% inhibitory concentration (IC50) was found to be 25 nM in data set [1] (setting [8]), 87 nM in data set [2] (setting [9]) and 270 nM in data set [3] (setting [10]). In addition, the IC95 in data set [4] stood at 103 nM; in data set [6], 361 nM. Moreover, the “Cytotoxicity: no cytotoxicity at concentrations of up to” value in data set [5] was above 8.5 µM.

For the origin of these results see US8404856B2, “Non-nucleoside reverse transcriptase inhibitors” (Merck Sharp & Dohme Corp., priority 2007, dated 2013).
